Measured values as given in patent US4200635A, “Antibacterially active amides” (Beecham Group Limited, priority 1977, dated 1980).
In brackets after ≈: the same amount, converted by molar mass.

Tests used:
[1] = system: Strep. dysgalactiae SPD 1; assay: MIC, veterinary bacteria; type: cell-based; conditions: Streptococcus dysgalactiae, SPD1; Strep. dysgalactiae SPD 1; read-out: M.I.C.
[2] = system: M. pneumoniae 427a; assay: in vitro MIC, anti-mycoplasmal activity; type: cell-based; conditions: Mycoplasmoides pneumoniae, Friis' broth, microtiter method
[3] = system: Staph. aureus B4; assay: MIC, veterinary bacteria; type: cell-based; conditions: Staphylococcus aureus; Staph. aureus B4; read-out: M.I.C.
[4] = system: Staph. aureus Oxford; assay: MIC, serial dilution in nutrient agar, human bacteria; type: cell-based; conditions: Staphylococcus aureus; Staph. aureus Oxford; nutrient agar containing 5% chocolated horse blood; read-out: M.I.C.
[5] = system: Bacillus subtilis 6633; assay: as above; type: cell-based; conditions: Bacillus subtilis 6633; nutrient agar containing 5% chocolated horse blood; read-out: M.I.C.
[6] = system: Strep. uberis SPU 1; assay: MIC, veterinary bacteria; type: cell-based; conditions: Streptococcus uberis, SPU1; Strep. uberis SPU 1; read-out: M.I.C.
[7] = system: Haemophilus influenzae Q1; assay: MIC, serial dilution in nutrient agar, human bacteria; type: cell-based; conditions: nutrient agar containing 5% chocolated horse blood
[8] = system: Neisseria flavescens 8263; assay: as above; type: cell-based; conditions: nutrient agar containing 5% chocolated horse blood
[9] = system: Bord. bronchiseptica BO9; assay: MIC, veterinary bacteria; type: cell-based; conditions: Bordetella bronchiseptica, BO9
[10] = system: Strep. pneumoniae CN33; assay: MIC, serial dilution in nutrient agar, human bacteria; type: cell-based; conditions: Streptococcus pneumoniae; Strep. pneumoniae CN33; nutrient agar containing 5% chocolated horse blood; read-out: M.I.C.
[11] = system: Staph. aureus Russell; assay: as above; type: cell-based; conditions: Staphylococcus aureus; Staph. aureus Russell; nutrient agar containing 5% chocolated horse blood; read-out: M.I.C.
[12] = system: M. dispar NCTC 10125; assay: in vitro MIC, anti-mycoplasmal activity; type: cell-based; conditions: Friis' broth, microtiter method
Description: (§1) Tables 3 and 4 show the in vitro MIC values (μg/ml) of the compounds of Examples 1 to 9 against a number of mycoplasma organisms, determined in Friis' broth using the microtiter method.

[13] = system: M. pulmonis JB; assay: in vitro MIC, anti-mycoplasmal activity; type: cell-based; conditions: Mycoplasmopsis pulmonis, Friis' broth, microtiter method
Description: as §1

[14] = system: M. fermentans MWKL4; assay: in vitro MIC, anti-mycoplasmal activity; type: cell-based; conditions: Mycoplasmopsis fermentans, Friis' broth, microtiter method
Description: as §1

[15] = system: M. suipneumoniae J2206/183b; assay: in vitro MIC, anti-mycoplasmal activity; type: cell-based; conditions: Mesomycoplasma hyopneumoniae, Friis' broth, microtiter method
Description: as §1

[16] = system: Past. multocida PAI; assay: MIC, veterinary bacteria; type: cell-based; conditions: Pasteurella multocida; Past. multocida PAI; read-out: M.I.C.
[17] = system: Haemophilus influenzae Wy21; assay: MIC, serial dilution in nutrient agar, human bacteria; type: cell-based; conditions: Haemophilus influenzae Wy21; nutrient agar containing 5% chocolated horse blood; read-out: M.I.C.
[18] = system: Pasteurella multocida 1633; assay: as above; type: cell-based; conditions: nutrient agar containing 5% chocolated horse blood
[19] = system: Past. haemolytica PA5; assay: MIC, veterinary bacteria; type: cell-based; conditions: Mannheimia haemolytica, PA5
[20] = system: Staph. aureus 152; assay: MIC, veterinary bacteria; type: cell-based; conditions: Staphylococcus aureus
[21] = system: certain Gram-positive and Gram-negative organisms; conditions: statement about monic acid A and its esters, earlier British applications; cited from earlier work

Work on `COC(=O)CNC(=O)C=C(C)CC1OCC(CC2OC2C(C)C(C)O)C(O)C1O` (stereo not drawn) [Example 3, Methoxycarbonylmethylamide of monic acid A] yielded an MIC [1] of 1.25 µg/mL (≈ 3.01 µM), an MIC [2] of 250 µg/mL (≈ 602 µM) and an MIC [3] of 40 µg/mL (≈ 96.3 µM). It also gave an MIC [4] of 25 µg/mL (≈ 60.2 µM), an MIC [5] of 25 µg/mL (≈ 60.2 µM) and an MIC [6] of 5 µg/mL (≈ 12 µM). It also gave an MIC [7] of 1.2 µg/mL (≈ 2.89 µM), an MIC [8] of 25 µg/mL (≈ 60.2 µM) and an MIC [9] of 5 µg/mL (≈ 12 µM). The MIC [10] was 25 µg/mL (≈ 60.2 µM), the MIC [11] was 125 µg/mL (≈ 301 µM) and the MIC [12] was < 0.5 µg/mL. For the same compound, the MIC [13] was 62.5 µg/mL (≈ 150 µM), the MIC [14] was < 0.5 µg/mL and the MIC [15] was 7.8 µg/mL (≈ 18.8 µM). The MIC [16] was 10 µg/mL (≈ 24.1 µM), the MIC [17] was 1.2 µg/mL (≈ 2.89 µM) and the MIC [18] was 12.5 µg/mL (≈ 30.1 µM). The MIC [19] was 5 µg/mL (≈ 12 µM) and the MIC [20] was > 80 µg/mL.
For `CC(=CC(=O)O)CC1OCC(CC2OC2C(C)C(C)O)C(O)C1O` (stereo not drawn) [monic acid A], the antibacterial activity [21] is listed as “does not appear to have antibacterial activity”.
